Assay results: patent US9663511B2, “Sphingosine 1-phosphate receptor antagonists” (ARROYO BIOSCIENCES, LLC, priority 2012, dated 2017)
Where “and” joins values, the source holds several entries; their conditions need not be identical. Identical values can stand only once. Like-named read-outs stand apart in the source and are kept apart here. One block for each compound: values may come before it.

How the values were obtained:
in vitro = details: mouse, microsomes, NADPH-dependent Clint (microsomal intrinsic clearance)
[1] = In vitro plasma protein binding; type: in vitro ADME, mouse
[2] = Microsomal intrinsic clearance; details: mouse, liver microsomes, mouse microsomes, test conc. 1 μM
S1P2 receptor = S1P2 receptor (Homo sapiens (Human), UniProt O95136); experiment: Antagonist assay (FLIPR TETRA, inhibition of reference agonist EC80) on S1P2; type: cell-based; details: tested as the citrate salt
Protocol: (§1) Antagonist percentage inhibition determinations were obtained by assaying sample compounds and referencing the control (EC80) wells for each profiled (GPCR) which evaluated binding to S1P2 and S1P5 receptors. The samples were run using a single addition assay protocol. The protocol design is as follows.
(§2) Unless specified otherwise, the sample compounds were diluted in 100% anhydrous DMSO including all dilutions. The compounds were tested as the citrate salt (1 equivalent per molecule). If the sample compound is provided in a different solvent all master stock dilutions are performed in the specified solvent. All control wells contained identical solvent final concentrations as the sample compound wells.
(§3) The sample compounds were transferred from a master stock solution into a daughter plate that was used in the assay. Each sample compound was diluted into an assay buffer (1×HBSS with 20 mM HEPES, 2.5 mM Probenecid, and 0.4% Free Fatty Acid BSA) at an appropriate concentration to obtain final specified concentrations.
(§4) Using the EC80 values that were determined real-time, stimulated all pre-incubated sample compounds and reference antagonists (if applicable) were compared with the EC80 values of reference agonist. These were read for 180 seconds using the FLIPR^TETRA (This assay added reference agonist to respective wells-then fluorescences measurements were collected to calculate IC50 values). All plates were subjected to appropriate baseline corrections. Once baseline corrections were processed, maximum fluorescence values were exported and data manipulated to calculate percentage activation, percentage inhibition and Z′.

S1P5 receptor = S1P5 receptor (Homo sapiens (Human), UniProt Q9H228); experiment: Antagonist assay (FLIPR TETRA, inhibition of reference agonist EC80) on S1P5; type: cell-based; details: tested as the citrate salt
Protocol: as §1, §2, §3, §4

[3] = Blood concentrations and pharmacokinetics after 1 mg/kg i.v. in mice; type: in vivo, mouse; details: for pharmacokinetics / blood levels following intravenous injection in mice (in words): comparison between compounds
Protocol: 1 mg/kg of the compound was injected by IV and blood was withdrawn at the times in table 1. The amount of starting compound was quantified by a standard curve using MS/MS determinations.

Chain of S1P2 receptor (O95136 whole entry): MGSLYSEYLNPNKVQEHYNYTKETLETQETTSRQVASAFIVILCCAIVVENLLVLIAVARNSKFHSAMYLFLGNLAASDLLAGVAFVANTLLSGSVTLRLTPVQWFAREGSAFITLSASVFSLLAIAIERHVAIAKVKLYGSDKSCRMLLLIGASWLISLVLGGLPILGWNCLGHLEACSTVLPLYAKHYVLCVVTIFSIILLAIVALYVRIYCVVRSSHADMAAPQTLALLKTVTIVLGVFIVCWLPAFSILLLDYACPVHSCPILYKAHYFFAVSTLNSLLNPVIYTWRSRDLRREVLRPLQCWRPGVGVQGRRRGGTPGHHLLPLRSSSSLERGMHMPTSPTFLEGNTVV
Chain of S1P5 receptor (Q9H228 whole entry): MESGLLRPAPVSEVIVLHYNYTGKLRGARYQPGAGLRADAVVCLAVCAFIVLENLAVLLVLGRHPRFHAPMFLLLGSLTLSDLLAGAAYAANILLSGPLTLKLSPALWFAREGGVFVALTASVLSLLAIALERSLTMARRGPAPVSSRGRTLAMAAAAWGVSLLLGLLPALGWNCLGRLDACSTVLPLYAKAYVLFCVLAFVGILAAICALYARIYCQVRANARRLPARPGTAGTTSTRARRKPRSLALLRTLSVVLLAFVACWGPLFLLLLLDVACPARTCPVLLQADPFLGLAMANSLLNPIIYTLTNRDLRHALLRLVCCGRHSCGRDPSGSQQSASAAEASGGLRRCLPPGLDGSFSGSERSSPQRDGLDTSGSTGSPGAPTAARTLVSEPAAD

microsomal CLint at 1 μM (in vitro): 15 µL/min/mg | mean fraction bound (%) ([1]; mouse, 5 nM): 92.1%
SMILES: CC(=O)CC(c1ccccc1)c1c(O)c2ccccc2oc1=O (stereo not drawn) [Warfarin, reference compound]

microsomal CLint at 1 μM ([2]; NADPH-dependent Clint (microsomal intrinsic clearance)): 1170 µL/min/mg | half-life at 1 μM ([2]; NADPH-dependent T1/2 (half-life)): 0.0333 h | microsomal CLint at 1 μM ([2]; NADPH-free Clint (microsomal intrinsic clearance)): 48 µL/min/mg | half-life at 1 μM ([2]; NADPH-free T1/2 (half-life)): 0.8 h | IC50 (S1P2 receptor): 1.2 nM | IC50 (S1P5 receptor): 2.2 nM | AUC0-inf ([3]; mouse blood, individual mice): 92.4 ng·h/mL and 192 ng·h/mL | AUC0-inf Extrapolated ([3]; mouse blood, individual mice): 19.3% and 63.8% | AUC0-tlast ([3]; mouse blood, individual mice): 74.6 ng·h/mL and 69.5 ng·h/mL | AUMC0-inf ([3]; mouse blood, individual mice): 604 h^2*ng/mL and 9010 h^2*ng/mL | AUMC0-inf Extrapolated ([3]; mouse blood, individual mice): 74.1% and 98.2% | C0 ([3]; mouse blood, individual mice): 262 ng/mL and 251 ng/mL | CL ([3]; mouse blood, individual mice): 180 mL/min/kg and 86.7 mL/min/kg | MRT0-inf ([3]; mouse blood, individual mice): 6.53 h and 46.9 h | MRT0-tlast ([3]; mouse blood, individual mice): 0.236 h and 2.10 h and 2.39 h | Terminal half-life ([3]; mouse blood, individual mice): 9.08 h and 41.7 h | Vss ([3]; mouse blood, individual mice): 70.7 L/kg and 244 L/kg | AUC0-inf Extrapolated, Mean S.D. ([3]; mouse blood, mean): 41.5 (n = 2) % | AUMC0-inf Extrapolated, Mean S.D. ([3]; mouse blood, mean): 86.1 (n = 2) % | AUMC0-inf, Mean S.D. ([3]; mouse blood, mean): 4810 (n = 2) h^2*ng/mL | AUMC0-tlast, Mean S.D. ([3]; mouse blood, mean): 112 ± 86.0 h^2*ng/mL | C0, Mean S.D. ([3]; mouse blood, mean): 295 ± 66.2 ng/mL | Blood Concentrations ([3]; mouse, 5 min, individual mice, LLOQ = 1 ng/mL): 152 ng/mL and 143 ng/mL | Blood Concentrations ([3]; mouse, 0.25 h, individual mice, LLOQ = 1 ng/mL): 51.2 ng/mL and 46.3 ng/mL | Blood Concentrations ([3]; mouse, 0.5 h, individual mice, LLOQ = 1 ng/mL): 22.8 ng/mL and 17.1 ng/mL | Blood Concentrations ([3]; mouse, 1 h, individual mice, LLOQ = 1 ng/mL): 7.90 ng/mL and 6.44 ng/mL | Blood Concentrations ([3]; mouse, 2 h, individual mice, LLOQ = 1 ng/mL): 1.13 ng/mL and 3.12 ng/mL and 2.96 ng/mL | Blood Concentrations ([3]; mouse, 4 h, individual mice, LLOQ = 1 ng/mL): BLQ and 1.98 ng/mL | Blood Concentrations ([3]; mouse, 6 h, individual mice, LLOQ = 1 ng/mL): BLQ and 2.25 ng/mL | Blood Concentrations ([3]; mouse, 12 h, individual mice, LLOQ = 1 ng/mL): BLQ and 2.04 ng/mL | pharmacokinetics / blood levels following intravenous injection in mice (in words) ([3]; mouse): substantially improved pharmacokinetics | pharmacokinetics / blood levels following intravenous injection in mice (in words) ([3]; mouse, listed as compound 1): highest drug blood levels over time | AUC(0-t) ([3]; mouse, whole blood, iv, 1 mg/kg, mouse blood, individual mice, read-out: AUC0-tlast): 53.9 ng·h/mL | C0 ([3]; mouse, whole blood, iv, 1 mg/kg, mouse blood, individual mice, read-out: C0): 371 ng/mL | AUC0-inf ([3]; mouse, whole blood, iv, 1 mg/kg, mouse blood, mean, read-out: AUC0-inf, Mean S.D.): 142 ng·h/mL | AUC(0-t) ([3]; mouse, whole blood, iv, 1 mg/kg, mouse blood, mean, read-out: AUC0-tlast, Mean S.D.): 66 ± 10.8 ng·h/mL | clearance ([3]; mouse, whole blood, iv, 1 mg/kg, mouse blood, mean, read-out: CL, Mean S.D. (converted)): 134 mL/min/kg | MRT inf ([3]; mouse, whole blood, iv, 1 mg/kg, mouse blood, mean, read-out: MRT0-inf, Mean S.D.): 26.7 h | MRT last ([3]; mouse, whole blood, iv, 1 mg/kg, mouse blood, mean, read-out: MRT0-tlast, Mean S.D.): 1.58 h | half-life ([3]; mouse, whole blood, iv, 1 mg/kg, mouse blood, mean, read-out: Terminal half-life, Mean S.D. (converted)): 25.4 h | Vd ([3]; mouse, whole blood, iv, 1 mg/kg, mouse blood, mean, read-out: Vss, Mean S.D.): 157 L/kg | concentration at 5 min ([3]; mouse, whole blood, iv, 1 mg/kg, mouse, 5 min, individual mice, LLOQ = 1 ng/mL, read-out: Blood Concentrations): 188 ng/mL | concentration at 5 min ([3]; mouse, whole blood, iv, 1 mg/kg, mouse, 5 min, mean of 3 mice, read-out: Blood Concentrations, Mean S.D.): 161 ± 23.8 ng/mL | concentration at 0.25 h ([3]; mouse, whole blood, iv, 1 mg/kg, mouse, 0.25 h, individual mice, LLOQ = 1 ng/mL, read-out: Blood Concentrations): 48.3 ng/mL | concentration at 0.25 h ([3]; mouse, whole blood, iv, 1 mg/kg, mouse, 0.25 h, mean of 3 mice, read-out: Blood Concentrations, Mean S.D.): 48.6 ± 2.46 ng/mL | concentration at 0.5 h ([3]; mouse, whole blood, iv, 1 mg/kg, mouse, 0.5 h, individual mice, LLOQ = 1 ng/mL, read-out: Blood Concentrations): 14.9 ng/mL | concentration at 0.5 h ([3]; mouse, whole blood, iv, 1 mg/kg, mouse, 0.5 h, mean of 3 mice, read-out: Blood Concentrations, Mean S.D.): 18.3 ± 4.08 ng/mL | concentration at 1 h ([3]; mouse, whole blood, iv, 1 mg/kg, mouse, 1 h, individual mice, LLOQ = 1 ng/mL, read-out: Blood Concentrations): 5.11 ng/mL | concentration at 1 h ([3]; mouse, whole blood, iv, 1 mg/kg, mouse, 1 h, mean of 3 mice, read-out: Blood Concentrations, Mean S.D.): 6.48 ± 1.4 ng/mL | concentration at 2 h ([3]; mouse, whole blood, iv, 1 mg/kg, mouse, 2 h, mean of 3 mice, read-out: Blood Concentrations, Mean S.D.): 2.4 ± 1.11 ng/mL | concentration at 4 h ([3]; mouse, whole blood, iv, 1 mg/kg, mouse, 4 h, individual mice, LLOQ = 1 ng/mL, read-out: Blood Concentrations): 2.22 ng/mL | concentration at 4 h ([3]; mouse, whole blood, iv, 1 mg/kg, mouse, 4 h, mean (n = 2 for Cmpd-1), read-out: Blood Concentrations, Mean S.D.): 2.1 ng/mL | concentration at 6 h ([3]; mouse, whole blood, iv, 1 mg/kg, mouse, 6 h, individual mice, LLOQ = 1 ng/mL, read-out: Blood Concentrations): 2.55 ng/mL | concentration at 6 h ([3]; mouse, whole blood, iv, 1 mg/kg, mouse, 6 h, mean (n = 2 for Cmpd-1), read-out: Blood Concentrations, Mean S.D.): 2.4 ng/mL | concentration at 12 h ([3]; mouse, whole blood, iv, 1 mg/kg, mouse, 12 h, individual mice, LLOQ = 1 ng/mL, read-out: Blood Concentrations): 1.36 ng/mL | concentration at 12 h ([3]; mouse, whole blood, iv, 1 mg/kg, mouse, 12 h, mean (n = 2 for Cmpd-1), read-out: Blood Concentrations, Mean S.D.): 1.7 ng/mL | mean fraction bound (%) ([1]; mouse plasma, test concentration 5 nM): 99.9%
SMILES: C=CCn1nc(C)c2c(C(C)C)cc(NNC(=O)Nc3cc(Cl)nc(Cl)c3)nc21 [Compound 1]
AUMC0-tlast ([3]; mouse blood, individual mice): 12.7 h^2*ng/mL and 157 h^2*ng/mL and 166 h^2*ng/mL
